Assay results: patent US6737383B1, “Herbicidal oxadiazolidines” (priority 1999, dated 2004)

Experiments:
[1] = system: smallflower flatsedge; test: Test B flood test smallflower flatsedge; assay type: in vivo, Cyperus difformis
Method in brief: (§1)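 Flood test on plants grown to the 2-leaf stage; treated plants kept in greenhouse twelve to sixteen days, then visually rated against controls on a 0 (no effect) to 10 (complete control) scale.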

[2] = system: velvetleaf; test: Test B pre/postemergence velvetleaf; assay type: in vivo, Abutilon theophrasti; details: for Plant response rating, Velvetleaf: scale of 0 to 10 where 0 is no effect and 10 is complete control
Method in brief: (§2)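 Response is a visual 0-to-10 score relative to untreated plants, where 0 means no effect and 10 means complete control, taken twelve to sixteen days after application. Treatments went onto soil at planting and onto foliage of 1- to 4-leaf plants, using a surfactant-containing non-phytotoxic solvent.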

[3] = system: wheat; test: Test B pre/postemergence wheat; assay type: in vivo, Triticum aestivum; details: for Plant response rating, Wheat: scale of 0 to 10 where 0 is no effect and 10 is complete control
Method in brief: as §2

[4] = system: blackgrass; test: Test B pre/postemergence blackgrass; assay type: in vivo, Alopecurus myosuroides
Method in brief: as §2

[5] = system: surinam grass; test: Test B pre/postemergence surinam grass; assay type: in vivo, Brachiaria decumbens
Method in brief: as §2

[6] = system: morningglory; test: Test B pre/postemergence morningglory; assay type: in vivo, Ipomoea hederacea; details: for Plant response rating, Morningglory: scale of 0 to 10 where 0 is no effect and 10 is complete control
Method in brief: as §2

[7] = system: bamyardgrass; test: Test B flood test barnyardgrass; assay type: in vivo, Echinochloa crus-galli
Method in brief: as §1

[8] = system: cocklebur; test: Test B pre/postemergence cocklebur; assay type: in vivo, Xanthium strumarium
Method in brief: as §2

[9] = system: purple nutsedge; test: Test B pre/postemergence purple nutsedge; assay type: in vivo, Cyperus rotundus; details: for Plant response rating, Nutsedge: scale of 0 to 10 where 0 is no effect and 10 is complete control
Method in brief: as §2

[10] = system: rice; test: Test B flood test rice; assay type: in vivo, Oryza sativa
Method in brief: as §1

[11] = system: pigweed; test: Test B pre/postemergence pigweed; assay type: in vivo, Amaranthus retroflexus; details: for Plant response rating, Redroot pigweed: scale of 0 to 10 where 0 is no effect and 10 is complete control
Method in brief: as §2

[12] = system: wild oat; test: Test B pre/postemergence wild oat; assay type: in vivo, Avena fatua; details: for Plant response rating, Wild oats: scale of 0 to 10 where 0 is no effect and 10 is complete control
Method in brief: as §2

[13] = system: crabgrass; test: Test B pre/postemergence crabgrass; assay type: in vivo, Digitaria sanguinalis
Method in brief: as §2

[14] = system: soybean; test: Test B pre/postemergence soybean; assay type: in vivo, Glycine max; details: for Plant response rating, Soybean: scale of 0 to 10 where 0 is no effect and 10 is complete control
Method in brief: as §2

[15] = system: giant foxtail; test: Test B pre/postemergence giant foxtail; assay type: in vivo, Setaria faberii
Method in brief: as §2

[16] = Rate 62 g/ha, flood test species, Pre-emergence, visual evaluation after twelve to sixteen days
[17] = Rate 125 g/ha, under heading Pre-emergence, flood test species, visual evaluation after twelve to sixteen days
[18] = Rate 250 g/ha, Pre-emergence (flood test species), scale 0 to 10, 0 is no effect, 10 is complete control
[19] = Rate 500 g/ha, Pre-emergence, flood test species, scale 0 to 10 (0 no effect, 10 complete control)
[20] = Postemergence, Rate 250 g/ha, scale 0 to 10
[21] = Preemergence, Rate 250 g/ha, scale 0 to 10, 0 is no effect, 10 is complete control
[22] = Preemergence, Rate 500 g/ha, scale 0 to 10, 0 is no effect, 10 is complete control
[23] = Rate 62 g/ha, Postemergence, scale 0 to 10, 0 no effect, 10 complete control
[24] = Rate 125 g/ha, Postemergence, scale 0 to 10, 0 is no effect, 10 is complete control
[25] = Postemergence, Rate 500 g/ha, scale of 0 to 10 where 0 is no effect and 10 is complete control
[26] = Preemergence, Rate 62 g/ha, scale of 0 to 10 where 0 is no effect and 10 is complete control
[27] = Preemergence, Rate 125 g/ha, scale of 0 to 10 where 0 is no effect and 10 is complete control

C=CC(OC)n1c(=O)on(C(=O)N(c2ccc(F)cc2)C(C)C)c1=O (stereo not shown) [Compound 452]
2: Blackgrass plant response rating [4, 21] | Blackgrass plant response rating [4, 22] | Morningglory plant response rating [6, 20] | Morningglory plant response rating [6, 24] | Plant response rating, Giant foxtail [15, 26] | Giant foxtail plant response rating [15, 23]
4: Giant foxtail plant response rating [15, 21] | Giant foxtail plant response rating [15, 24]
0: Plant response rating, S. Flatsedge (0 to 10 scale, 0 is no effect, 10 is complete control) [1, 16] | S. Flatsedge plant response rating (0 to 10 scale, 0 is no effect, 10 is complete control) [1, 17] | S. Flatsedge plant response rating [1, 18] | S. Flatsedge plant response rating [1, 19] | Velvetleaf plant response rating [2, 20] | Plant response rating, Velvetleaf ([2]; Preemergence, Rate 62 g/ha) | Plant response rating, Velvetleaf ([2]; Preemergence, Rate 125 g/ha) | Velvetleaf plant response rating [2, 21] | Velvetleaf plant response rating [2, 22] | Velvetleaf plant response rating [2, 23] | Velvetleaf plant response rating [2, 24] | Wheat plant response rating [3, 20] | Plant response rating, Wheat ([3]; Preemergence, Rate 62 g/ha) | Plant response rating, Wheat ([3]; Preemergence, Rate 125 g/ha) | Wheat plant response rating [3, 21] | Wheat plant response rating [3, 22] | Wheat plant response rating [3, 23] | Wheat plant response rating [3, 24] | Plant response rating, Blackgrass [4, 26] | Plant response rating, Blackgrass [4, 27] | Blackgrass plant response rating [4, 23] | Blackgrass plant response rating [4, 24] | B. signalgrass plant response rating ([5]; Postemergence, Rate 250 g/ha, scale 0 to 10, 0 no effect, 10 complete control) | B. signalgrass plant response rating [5, 25] | Plant response rating, B. signalgrass [5, 26] | Plant response rating, B. signalgrass [5, 27] | B. signalgrass plant response rating [5, 21] | B. signalgrass plant response rating [5, 22] | B. signalgrass plant response rating [5, 23] | B. signalgrass plant response rating [5, 24] | Plant response rating, Morningglory ([6]; Preemergence, Rate 62 g/ha) | Plant response rating, Morningglory ([6]; Preemergence, Rate 125 g/ha) | Morningglory plant response rating [6, 21] | Morningglory plant response rating [6, 22] | Plant response rating, Barnyardgrass (0 to 10 scale, 0 is no effect, 10 is complete control) [7, 16] | Barnyardgrass plant response rating (0 to 10 scale, 0 is no effect, 10 is complete control) [7, 17] | Barnyardgrass plant response rating [7, 18] | Barnyardgrass plant response rating [7, 19] | Cocklebur plant response rating [8, 20] | Cocklebur plant response rating [8, 25] | Plant response rating, Cocklebur [8, 26] | Plant response rating, Cocklebur [8, 27] | Cocklebur plant response rating [8, 21] | Cocklebur plant response rating [8, 22] | Cocklebur plant response rating [8, 23] | Cocklebur plant response rating [8, 24] | Nutsedge plant response rating [9, 20] | Plant response rating, Nutsedge ([9]; Preemergence, Rate 62 g/ha) | Plant response rating, Nutsedge ([9]; Preemergence, Rate 125 g/ha) | Nutsedge plant response rating [9, 21] | Nutsedge plant response rating [9, 22] | Nutsedge plant response rating [9, 23] | Nutsedge plant response rating [9, 24] | Plant response rating, Rice (0 to 10 scale, 0 is no effect, 10 is complete control) [10, 16] | Rice plant response rating (0 to 10 scale, 0 is no effect, 10 is complete control) [10, 17] | Rice plant response rating [10, 18] | Rice plant response rating [10, 19] | Redroot pigweed plant response rating [11, 20] | Plant response rating, Redroot pigweed ([11]; Preemergence, Rate 62 g/ha) | Plant response rating, Redroot pigweed ([11]; Preemergence, Rate 125 g/ha) | Redroot pigweed plant response rating [11, 21] | Redroot pigweed plant response rating [11, 22] | Redroot pigweed plant response rating [11, 23] | Redroot pigweed plant response rating [11, 24] | Wild oats plant response rating [12, 20] | Plant response rating, Wild oats ([12]; Preemergence, Rate 62 g/ha) | Plant response rating, Wild oats ([12]; Preemergence, Rate 125 g/ha) | Wild oats plant response rating [12, 21] | Wild oats plant response rating [12, 22] | Wild oats plant response rating [12, 23] | Wild oats plant response rating [12, 24] | Plant response rating, Soybean ([14]; Preemergence, Rate 62 g/ha) | Plant response rating, Soybean ([14]; Preemergence, Rate 125 g/ha) | Soybean plant response rating [14, 21] | Soybean plant response rating [14, 22]
1: Morningglory plant response rating [6, 23] | Soybean plant response rating [14, 20] | Soybean plant response rating [14, 23] | Soybean plant response rating [14, 24]
3: Blackgrass plant response rating [4, 20] | Crabgrass plant response rating [13, 23] | Plant response rating, Giant foxtail [15, 27]
5: Blackgrass plant response rating [4, 25] | Plant response rating, Crabgrass [13, 26] | Plant response rating, Crabgrass [13, 27] | Crabgrass plant response rating [13, 21] | Crabgrass plant response rating [13, 22]
6: Crabgrass plant response rating [13, 20] | Crabgrass plant response rating [13, 25]
7: Giant foxtail plant response rating [15, 20] | Giant foxtail plant response rating [15, 25] | Giant foxtail plant response rating [15, 22]
